According to patent US10212936B2, “Molecules having pesticidal utility, and intermediates, compositions, and processes, related thereto” (priority 2014, dated 2019):

Legend:
Format in all cases: in vivo
[1] = test system: Yellow Fever Mosquito (Aedes aegypti, AEDSAE); assay: Bioassay on Yellow Fever Mosquito (YFM) larvae, 96-well plate; conditions: about 1 day-old larvae, 4000 ppm DMSO master plate diluted, graded after 3 days
Method: Example C: Bioassays on Yellow Fever Mosquito (Aedes aegypti, AEDSAE) (“YFM”)
Certain molecules disclosed in this document were tested against YFM using procedures described in the following paragraph. In the reporting of the results, the “YFM Rating Table” was used (See Table Section).
Master plates containing 400 μg of a molecule dissolved in 100 μL of dimethyl sulfoxide (DMSO) (equivalent to a 4000 ppm solution) are used. A master plate of assembled molecules contains 15 μL per well. To this plate, 135 μL of a 90:10 water:acetone mixture is added to each well. A robot (Biomek® NXP Laboratory Automation Workstation) is programmed to dispense 15 μL aspirations from the master plate into an empty 96-well shallow plate (“daughter” plate). There are 6 reps (“daughter” plates) created per master. The created daughter plates are then immediately infested with YFM larvae.
The day before plates are to be treated, mosquito eggs are placed in Millipore water containing liver powder to begin hatching (4 g. into 400 mL). After the daughter plates are created using the robot, they are infested with 220 μL of the liver powder/larval mosquito mixture (about 1 day-old larvae). After plates are infested with mosquito larvae, a non-evaporative lid is used to cover the plate to reduce drying. Plates are held at room temperature for 3 days prior to grading. After 3 days, each well is observed and scored based on mortality. The results are indicated in the table entitled “Table ABC: Biological Results” (See Table Section).

[2] = test system: Cabbage Looper (Trichoplusia ni, TRIPNI); assay: Bioassay on Cabbage Looper (CL), 128-well diet tray assay; conditions: 168 h, 50 μg/cm^2 on artificial diet, second instar larvae, five to seven days, 25° C., read-out: CL % Control (or Mortality) rating
Method: (§1) Example A: Bioassays on Beet Armyworm (Spodoptera exigua, LAPHEG) (“BAW”), Corn Earworm (Helicoverpa zea, HELIZE) (“CEW”), and Cabbage Looper (Trichoplusia ni, TRIPNI) (“CL”)
(§2) Certain molecules disclosed in this document were tested against BAW, CEW, and CL using procedures described in the following examples. In the reporting of the results, the “BAW, CEW, & CL Rating Table” was used (See Table Section).
Bioassays on CL were conducted using a 128-well diet tray assay. one to five second instar CL larvae were placed in each well (3 mL) of the diet tray that had been previously filled with 1 mL of artificial diet to which 50 μg/cm^2 of the test molecule (dissolved in 50 μL of 90:10 acetone-water mixture) had been applied (to each of eight wells) and then allowed to dry. Trays were covered with a clear self-adhesive cover and held at 25° C., 14:10 light-dark for five to seven days. Percent mortality was recorded for the larvae in each well; activity in the eight wells was then averaged. The results are indicated in the table entitled “Table ABC: Biological Results” (See Table Section).

[3] = test system: Beet Armyworm (Spodoptera exigua, LAPHEG); assay: Bioassay on Beet Armyworm (BAW), 128-well diet tray assay; conditions: 168 h, 50 μg/cm^2 on artificial diet, second instar larvae, five to seven days, 25° C., read-out: BAW % Control (or Mortality) rating
Method: as §1, §2
Bioassays on BAW were conducted using a 128-well diet tray assay. one to five second instar BAW larvae were placed in each well (3 mL) of the diet tray that had been previously filled with 1 mL of artificial diet to which 50 μg/cm^2 of the test molecule (dissolved in 50 μL of 90:10 acetone-water mixture) had been applied (to each of eight wells) and then allowed to dry. Trays were covered with a clear self-adhesive cover and held at 25° C., 14:10 light-dark for five to seven days. Percent mortality was recorded for the larvae in each well; activity in the eight wells was then averaged. The results are indicated in the table entitled “Table ABC: Biological Results” (See Table Section).

Q: With `CCOC(=O)c1c(C)csc1NC(=O)Nc1ccc(-c2ncn(-c3ccc(OC(F)(F)F)cc3)n2)cc1` [F1, ethyl 4-methyl-2-(3-(4-(1-(4-(trifluoromethoxy)phenyl)-1H-1,2,4-triazol-3-yl)phenyl)ureido)thiophene-3-carboxylate] as the molecule, how does the “YFM % Control (or Mortality) rating” value [1] read?
A: D (No activity noticed in this bioassay)

Q: And the mortality at 50 µg/cm2 [2]?
A: 0%

Q: What about the mortality at 50 µg/cm2 [3] of the same molecule?
A: 0%

Q: Which “YFM % Control (or Mortality) rating” value [1] does the source give for `CCOC(=O)c1cnn(-c2ccc(Cl)cc2C)c1NC(=O)Nc1ccc(-c2ncn(-c3ccc(OC(F)(F)F)cc3)n2)cc1` [F2, Ethyl 1-(4-chloro-2-methylphenyl)-5-(3-(4-(1-(4-(trifluoromethoxy)phenyl)-1H-1,2,4-triazol-3-yl)phenyl)ureido)-1H-pyrazole-4-carboxylate] here?
A: D (No activity noticed in this bioassay)

Q: What about the mortality at 50 µg/cm2 [2] of the same molecule?
A: 0%

Q: What about the mortality at 50 µg/cm2 [3] of the same molecule?
A: 0%

Q: With `CC(C)CC(C)c1sccc1NC(=O)Nc1ccc(-c2ncn(-c3ccc(OC(F)(F)F)cc3)n2)cc1` (stereo not drawn) [F8, 1-(2-(4-Methylpentan-2-yl)thiophen-3-yl)-3-(4-(1-(4-(trifluoromethoxy)phenyl)-1H-1,2,4-triazol-3-yl)phenyl)urea] as the molecule, how does the “YFM % Control (or Mortality) rating” value [1] read?
A: D (No activity noticed in this bioassay)

Q: And the mortality at 50 µg/cm2 [2]?
A: 50 to 100%

Q: And the mortality at 50 µg/cm2 [3]?
A: 0%

Q: Which “YFM % Control (or Mortality) rating” value [1] does the source give for `O=C(Nc1ccc(-c2ncn(-c3ccc(OC(F)(F)F)cc3)n2)cc1)Nc1ccnn1-c1ccccc1` [F10, 1-(1-Phenyl-1H-pyrazol-5-yl)-3-(4-(1-(4-(trifluoromethoxy)phenyl)-1H-1,2,4-triazol-3-yl)phenyl)urea] here?
A: D (No activity noticed in this bioassay)

Q: What about the mortality at 50 µg/cm2 [2] of the same molecule?
A: 50 to 100%

Q: And the mortality at 50 µg/cm2 [3]?
A: 50 to 100%

Q: How did the mortality at 50 µg/cm2 [2] turn out when `O=C(Nc1ccc(-c2ncn(-c3ccc(OC(F)(F)F)cc3)n2)cc1)Nc1nccn1-c1cc(Cl)cc(Cl)c1` [F28, 1-(1-(3,5-Dichlorophenyl)-1H-imidazol-2-yl)-3-(4-(1-(4-(trifluoromethoxy)phenyl)-1H-1,2,4-triazol-3-yl)phenyl)urea] was run?
A: 0%

Q: What about the mortality at 50 µg/cm2 [3] of the same molecule?
A: 50 to 100%

Q: Which mortality at 50 µg/cm2 [2] does the source give for `O=C(Nc1ccc(-c2ncn(-c3ccc(OC(F)(F)F)cc3)n2)cc1)Nc1nccn1-c1cccnc1` [F32, 1-(1-(Pyridin-3-yl)-1H-imidazol-2-yl)-3-(4-(1-(4-(trifluoromethoxy)phenyl)-1H-1,2,4-triazol-3-yl)phenyl)urea] here?
A: 0 to 50%

Q: And the mortality at 50 µg/cm2 [3]?
A: 50 to 100%

Q: What does the source list for `COc1ccc(-c2ncsc2NC(=O)Nc2ccc(-c3ncn(-c4ccc(OC(F)(F)F)cc4)n3)cc2)c(C)c1` [F46, 1-(4-(4-Methoxy-2-methylphenyl)thiazol-5-yl)-3-(4-(1-(4-(trifluoromethoxy)phenyl)-1H-1,2,4-triazol-3-yl)phenyl)urea]?
A: YFM % Control (or Mortality) rating [1]: A (80-100); mortality at 50 µg/cm2 [2]: 50 to 100%; mortality at 50 µg/cm2 [3]: 50 to 100%

Q: How did the “YFM % Control (or Mortality) rating” value [1] turn out when `Cc1ccc(C)c(-c2ncsc2NC(=O)Nc2ccc(-c3ncn(-c4ccc(OC(F)(F)F)cc4)n3)cc2)c1` [F47, 1-(4-(2,5-Dimethylphenyl)thiazol-5-yl)-3-(4-(1-(4-(trifluoromethoxy)phenyl)-1H-1,2,4-triazol-3-yl)phenyl)urea] was run?
A: A (80-100)

Q: What about the mortality at 50 µg/cm2 [2] of the same molecule?
A: 50 to 100%

Q: What about the mortality at 50 µg/cm2 [3] of the same molecule?
A: 50 to 100%

Q: Which “YFM % Control (or Mortality) rating” value [1] does the source give for `O=C(Nc1ccc(-c2ncn(-c3ccc(OC(F)(F)F)cc3)n2)cc1)Nc1scnc1-c1c(Cl)cccc1Cl` [F48, 1-(4-(2,6-Dichlorophenyl)thiazol-5-yl)-3-(4-(1-(4-(trifluoromethoxy)phenyl)-1H-1,2,4-triazol-3-yl)phenyl)urea] here?
A: A (80-100)

Q: Which results are given for `CCc1ccccc1-c1ncsc1NC(=O)Nc1ccc(-c2ncn(-c3ccc(OC(F)(F)F)cc3)n2)cc1` [F49, 1-(4-(2-ethylphenyl)thiazol-5-yl)-3-(4-(1-(4-(trifluoromethoxy)phenyl)-1H-1,2,4-triazol-3-yl)phenyl)urea]?
A: mortality at 50 µg/cm2 [2]: 50 to 100%; mortality at 50 µg/cm2 [3]: 50 to 100%

Q: Which “YFM % Control (or Mortality) rating” value [1] does the source give for `O=C(NCCc1ccc(-c2ncn(-c3ccc(OC(F)(F)F)cc3)n2)cc1)Nc1nccs1` [F50, 1-(thiazol-2-yl)-3-(4-(1-(4-(trifluoromethoxy)phenyl)-1H-1,2,4-triazol-3-yl)phenethyl)urea] here?
A: D (No activity noticed in this bioassay)

Q: And the mortality at 50 µg/cm2 [2]?
A: 0%

Q: What about the mortality at 50 µg/cm2 [3] of the same molecule?
A: 0%

Q: Which mortality at 50 µg/cm2 [2] does the source give for `O=C(NCCc1ccc(-c2ncn(-c3ccc(OC(F)(F)F)cc3)n2)cc1)Nc1ccnn1-c1ccccc1` [F51, 1-(1-phenyl-1H-pyrazol-5-yl)-3-(4-(1-(4-(trifluoromethoxy)phenyl)-1H-1,2,4-triazol-3-yl)phenethyl)urea] here?
A: 0%

Q: What about the mortality at 50 µg/cm2 [3] of the same molecule?
A: 0%

Q: What does the source list for `Cc1cc(C)c(C2=C(NC(=O)NCCc3ccc(-c4ncn(-c5ccc(OC(F)(F)F)cc5)n4)cc3)OCC2=O)c(C)c1` [F53, 1-(3-mesityl-4-oxo-4,5-dihydrofuran-2-yl)-3-(4-(1-(4-(trifluoromethoxy)phenyl)-1H-1,2,4-triazol-3-yl)phenethyl)urea]?
A: YFM % Control (or Mortality) rating [1]: A (80-100); mortality at 50 µg/cm2 [2]: 50 to 100%; mortality at 50 µg/cm2 [3]: 0 to 50%

Q: With `O=C(NCCc1ccc(-c2ncn(-c3ccc(OC(F)(F)F)cc3)n2)cc1)NC1=C(c2c(Cl)cccc2Cl)C(=O)CO1` [F54, 1-(3-(2,6-Dichlorophenyl)-4-oxo-4,5-dihydrofuran-2-yl)-3-(4-(1-(4-(trifluoromethoxy)phenyl)-1H-1,2,4-triazol-3-yl)phenethyl)urea] as the molecule, how does the “YFM % Control (or Mortality) rating” value [1] read?
A: A (80-100)

Q: What about the mortality at 50 µg/cm2 [2] of the same molecule?
A: 0%

Q: What about the mortality at 50 µg/cm2 [3] of the same molecule?
A: 0%

Q: Which results are given for `Cc1cccc(C)c1C1=C(NC(=O)NCCc2ccc(-c3ncn(-c4ccc(OC(F)(F)F)cc4)n3)cc2)OCC1=O` [F55, 1-(3-(2,6-Dimethylphenyl)-4-oxo-4,5-dihydrofuran-2-yl)-3-(4-(1-(4-(trifluoromethoxy)phenyl)-1H-1,2,4-triazol-3-yl)phenethyl)urea]?
A: YFM % Control (or Mortality) rating [1]: A (80-100); mortality at 50 µg/cm2 [2]: 0%; mortality at 50 µg/cm2 [3]: 50 to 100%

Q: What does the source list for `Cc1ccc(C)c(C2=C(NC(=O)NCCc3ccc(-c4ncn(-c5ccc(OC(F)(F)F)cc5)n4)cc3)OCC2=O)c1` [F56, 1-(3-(2,5-Dimethylphenyl)-4-oxo-4,5-dihydrofuran-2-yl)-3-(4-(1-(4-(trifluoromethoxy)phenyl)-1H-1,2,4-triazol-3-yl)phenethyl)urea]?
A: YFM % Control (or Mortality) rating [1]: A (80-100); mortality at 50 µg/cm2 [2]: 50 to 100%; mortality at 50 µg/cm2 [3]: 50 to 100%

Q: For `Cc1ccc(C)c(-c2c(NC(=O)NCCc3ccc(-c4ncn(-c5ccc(OC(F)(F)F)cc5)n4)cc3)on(C)c2=O)c1` [F57, 1-(4-(2,5-Dimethylphenyl)-2-methyl-3-oxo-2,3-dihydroisoxazol-5-yl)-3-(4-(1-(4-(trifluoromethoxy)phenyl)-1H-1,2,4-triazol-3-yl)phenethyl)urea], which “YFM % Control (or Mortality) rating” value [1] is on record?
A: A (80-100)

Q: What about the mortality at 50 µg/cm2 [2] of the same molecule?
A: 50 to 100%

Q: And the mortality at 50 µg/cm2 [3]?
A: 50 to 100%

Q: What does the source list for `CC(C)c1ccccc1-c1c(NC(=O)NCCc2ccc(-c3ncn(-c4ccc(OC(F)(F)F)cc4)n3)cc2)on(C)c1=O` [F58, 1-(4-(2-Isopropylphenyl)-2-methyl-3-oxo-2,3-dihydroisoxazol-5-yl)-3-(4-(1-(4-(trifluoromethoxy)phenyl)-1H-1,2,4-triazol-3-yl)phenethyl)urea]?
A: YFM % Control (or Mortality) rating [1]: A (80-100); mortality at 50 µg/cm2 [2]: 50 to 100%; mortality at 50 µg/cm2 [3]: 50 to 100%

Q: Which results are given for `Cc1cc(C)c(-c2c(NC(=O)NCCc3ccc(-c4ncn(-c5ccc(OC(F)(F)F)cc5)n4)cc3)on(C)c2=O)c(C)c1` [F59, 1-(4-Mesityl-2-methyl-3-oxo-2,3-dihydroisoxazol-5-yl)-3-(4-(1-(4-(trifluoromethoxy)phenyl)-1H-1,2,4-triazol-3-yl)phenethyl)urea]?
A: YFM % Control (or Mortality) rating [1]: A (80-100); mortality at 50 µg/cm2 [2]: 50 to 100%; mortality at 50 µg/cm2 [3]: 50 to 100%
